PubChem BioAssay AID248 (DTP/NCI, 2004)
Several values for one entry are separate records, joined by “and”; a condition that tells them apart may be missing. Equal values may be shown once. Toxic doses and inconclusive results are not listed. Cut-off read from the data, not from the text of the source: active = T/C of 150% or more; inactive = T/C below 125%.

Tested on: L1210 leukemia ip in BDF1 mice, survival T/C
Test: NCI In Vivo Anticancer Drug Screen. Data for tumor model L1210 Leukemia (intraperitoneal) in B6D2F1 (BDF1) mice
Conditions: endpoint: mean survival time, higher = longer survival
Summary of the method: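 Transplanted-tumor mice were given test agent; controls received vehicle only. Survival readings from the two groups were divided (treated over control).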

[1] = dose: 100.0 mg/kg/injection, schedule: Q01DX009 (ip), vehicle: saline with Tween-80
[2] = dose: 100.0 mg/kg/injection, schedule: Q04DX002 (ip), vehicle: saline with Tween-80
[3] = dose: 100.0 mg/kg/injection, schedule: Q04DX003 (ip), vehicle: saline with Tween-80
[4] = dose: 200.0 mg/kg/injection, schedule: Q01DX009 (ip), vehicle: saline with Tween-80
[5] = dose: 200.0 mg/kg/injection, schedule: Q04DX002 (ip), vehicle: saline with Tween-80
[6] = dose: 200.0 mg/kg/injection, schedule: Q04DX003 (ip), vehicle: saline with Tween-80
[7] = dose: 400.0 mg/kg/injection, schedule: Q01DX009 (ip), vehicle: saline with Tween-80
[8] = dose: 400.0 mg/kg/injection, schedule: Q04DX002 (ip), vehicle: saline with Tween-80
[9] = dose: 400.0 mg/kg/injection, schedule: Q04DX003 (ip), vehicle: saline with Tween-80
[10] = dose: 100.0 mg/kg/injection, schedule: Q01DX001 (ip), vehicle: carboxymethylcellulose (CMC)
[11] = dose: 200.0 mg/kg/injection, schedule: Q01DX001 (ip), vehicle: carboxymethylcellulose (CMC)
[12] = dose: 400.0 mg/kg/injection, schedule: Q01DX001 (ip), vehicle: carboxymethylcellulose (CMC)
[13] = dose: 100.0 mg/kg/injection, schedule: Q01DX001 (ip), vehicle: Klucel (hydroxypropylcellulose) (HPC)
[14] = dose: 200.0 mg/kg/injection, schedule: Q01DX001 (ip), vehicle: Klucel (hydroxypropylcellulose) (HPC)
[15] = dose: 400.0 mg/kg/injection, schedule: Q01DX001 (ip), vehicle: Klucel (hydroxypropylcellulose) (HPC)
[16] = dose: 100.0 mg/kg/injection, schedule: Q01DX009 (ip), vehicle: Klucel (hydroxypropylcellulose) (HPC)
[17] = dose: 200.0 mg/kg/injection, schedule: Q01DX009 (ip), vehicle: Klucel (hydroxypropylcellulose) (HPC)
[18] = dose: 25.0 mg/kg/injection, schedule: Q01DX009 (ip), vehicle: Klucel (hydroxypropylcellulose) (HPC)
[19] = dose: 50.0 mg/kg/injection, schedule: Q01DX009 (ip), vehicle: Klucel (hydroxypropylcellulose) (HPC)
[20] = dose: 400.0 mg/kg/injection, schedule: Q01DX009 (ip), vehicle: Klucel (hydroxypropylcellulose) (HPC)
[21] = dose: 50.0 mg/kg/injection, schedule: Q01DX009 (ip), vehicle: saline with Tween-80

Measured: T/C

Cc1ccc(Nc2cc(Br)c(N)c3c2C(=O)c2ccccc2C3=O)cc1
inactive: dose: 100.0 mg/kg/injection, schedule: Q01DX001 (ip), vehicle: saline with Tween-80 103 % of control | [1] 93 % of control and 94 % of control | [2] 92 % of control | [3] 97 % of control | dose: 200.0 mg/kg/injection, schedule: Q01DX001 (ip), vehicle: saline with Tween-80 102 % of control | [4] 93 % of control and 94 % of control | [5] 86 % of control | [6] 95 % of control | dose: 400.0 mg/kg/injection, schedule: Q01DX001 (ip), vehicle: saline with Tween-80 91 % of control | [7] 96 % of control and 97 % of control | [8] 86 % of control | [9] 90 % of control

CSc1nnc(-c2ccncc2)s1
inactive: dose: 100.0 mg/kg/injection, schedule: Q04DX003 (ip), vehicle: saline 104 % of control | dose: 200.0 mg/kg/injection, schedule: Q04DX003 (ip), vehicle: saline 107 % of control

O=C(N/N=C/c1ccc2c(c1)OCO2)C(O)(c1ccccc1)c1ccccc1
inactive: [10] 106 % of control | [11] 95 % of control | [12] 103 % of control

O=C1OCc2c1cc1n(c2=O)Cc2cc3ccccc3nc2-1
inactive: [13] 89 % of control | [14] 89 % of control | [15] 103 % of control

NNC(=O)c1ccc(Cl)cc1Nc1ccccc1
inactive: [13] 95 % of control | [16] 107 % of control | [14] 86 % of control | [17] 94 % of control | [15] 97 % of control

Cc1ccc(CNC(=S)NC2CCCCC2)cc1C
inactive: [18] 97 % of control | [19] 93 % of control | [16] 93 % of control

Cc1ccc(/C(=N\N=C(N)N)C2CC2)cc1C
inactive: dose: 15.0 mg/kg/injection, schedule: Q01DX Z (ip), vehicle: methylcellulose (MC) 103 % of control | dose: 30.0 mg/kg/injection, schedule: Q01DX Z (ip), vehicle: methylcellulose (MC) 97 % of control | dose: 30.0 mg/kg/injection, schedule: Q01DX Z (oral), vehicle: methylcellulose (MC) 95 % of control | dose: 60.0 mg/kg/injection, schedule: Q01DX Z (ip), vehicle: methylcellulose (MC) 93 % of control | dose: 60.0 mg/kg/injection, schedule: Q01DX Z (oral), vehicle: methylcellulose (MC) 88 % of control

CC1C(c2ccccc2)CC(c2ccccc2)OS1(=O)=O (stereo not given)
inactive: [13] 95 % of control | dose: 100.0 mg/kg/injection, schedule: Q04DX003 (ip), vehicle: Klucel (hydroxypropylcellulose) (HPC) 103 % of control | [14] 97 % of control | dose: 200.0 mg/kg/injection, schedule: Q04DX003 (ip), vehicle: Klucel (hydroxypropylcellulose) (HPC) 94 % of control | [15] 93 % of control | dose: 400.0 mg/kg/injection, schedule: Q04DX003 (ip), vehicle: Klucel (hydroxypropylcellulose) (HPC) 97 % of control

COC(=O)c1ccccc1NC(=O)c1cccc(Cl)c1
inactive: [16] 114 % of control | [17] 118 % of control | [20] 102 % of control

O=CC1OC(c2ccccc2)OC2COC(c3ccccc3)OC12 (stereo not given)
inactive: [13] 103 % of control | [14] 97 % of control | [15] 93 % of control

C1CC2CCC(N3CCOCC3)C(C1)O2 (stereo not given)
inactive: [21] 102 % of control | [1] 102 % of control | [4] 102 % of control

COC(=O)c1cccc(-c2cccc(C(=O)OC)c2)c1
inactive: [10] 96 % of control | [11] 96 % of control | [12] 100 % of control

O=C(O)COc1ccccc1
inactive: [18] 108 % of control | [19] 105 % of control | [16] 93 % of control and 88 % of control

NNC(=O)CCNCCC(=O)NN
inactive: dose: 100.0 mg/kg/injection, schedule: Q04DX002 (ip), vehicle: saline + alcohol 94 % of control | dose: 200.0 mg/kg/injection, schedule: Q04DX002 (ip), vehicle: saline + alcohol 88 % of control

Cc1c(Cl)cccc1NC(=O)c1c(Cl)c(Cl)c(Cl)c(Cl)c1C(=O)O
inactive: [16] 102 % of control | [17] 103 % of control

Cc1ccc(S(=O)(=O)N(c2cc(C)ccc2C)c2ccccc2[N+](=O)[O-])cc1
inactive: dose: 50.0 mg/kg/injection, schedule: Q01DX001 (ip), vehicle: carboxymethylcellulose (CMC) 98 % of control | [10] 91 % of control | [11] 96 % of control | [12] 98 % of control

c1ccc(-c2cc(-c3cc(-c4ccccc4)on3)no2)cc1
inactive: dose: 50.0 mg/kg/injection, schedule: Q04DX003 (ip), vehicle: saline with Tween-80 98 % of control | [3] 98 % of control | [6] 101 % of control

S=C(Nc1ccccc1)N1CC1
inactive: [13] 96 % of control | [3] 91 % of control | [14] 98 % of control | [6] 92 % of control | [15] 94 % of control | [9] 90 % of control

Nc1nc2ncc(CNc3ccc(C(=O)NC(CCC(=O)O)C(=O)O)cn3)nc2c(=O)[nH]1 (stereo not given)
inactive: dose: 25.0 mg/kg/injection, schedule: Q01DX009 (ip), vehicle: saline with Tween-80 104 % of control | dose: 37.5 mg/kg/injection, schedule: Q01DX009 (ip), vehicle: saline with Tween-80 114 % of control and 119 % of control | [21] 114 % of control | dose: 75.0 mg/kg/injection, schedule: Q01DX009 (ip), vehicle: saline with Tween-80 108 % of control

NC(=O)N/N=C1/CC2C3C=CC4C3CC2C14 (stereo not given)
inactive: dose: 37.5 mg/kg/injection, schedule: Q04DX002 (ip), vehicle: saline with Tween-80 117 % of control | dose: 75.0 mg/kg/injection, schedule: Q04DX002 (ip), vehicle: saline with Tween-80 102 % of control | dose: 150.0 mg/kg/injection, schedule: Q04DX002 (ip), vehicle: saline with Tween-80 106 % of control | dose: 300.0 mg/kg/injection, schedule: Q04DX002 (ip), vehicle: saline with Tween-80 98 % of control

COc1cc(C2=N/C(=C\c3ccccc3O)C(=O)O2)cc(OC)c1OC
inactive: [2] 96 % of control | [5] 89 % of control | [8] 89 % of control

N#CC(C#N)C1c2ccccc2C([N+](=O)[O-])c2ccccc21 (stereo not given)
inactive: [1] 103 % of control | [3] 88 % of control | [4] 96 % of control | [6] 93 % of control | [7] 98 % of control | [9] 101 % of control

CCOC(=O)N1C(=O)NC(=O)C1c1ccccc1 (stereo not given)
inactive: dose: 50.0 mg/kg/injection, schedule: Q01DX001 (ip), vehicle: saline 97 % of control | dose: 100.0 mg/kg/injection, schedule: Q01DX001 (ip), vehicle: saline 115 % of control | dose: 200.0 mg/kg/injection, schedule: Q01DX001 (ip), vehicle: saline 97 % of control

O=[N+]([O-])c1cccc2nonc12
inactive: dose: 3.12 mg/kg/injection, schedule: Q04DX002 (ip), vehicle: Klucel (hydroxypropylcellulose) (HPC) 93 % of control | dose: 6.25 mg/kg/injection, schedule: Q04DX002 (ip), vehicle: Klucel (hydroxypropylcellulose) (HPC) 109 % of control | dose: 12.5 mg/kg/injection, schedule: Q04DX002 (ip), vehicle: Klucel (hydroxypropylcellulose) (HPC) 102 % of control

Cc1cc(=O)[nH]c(N/N=C/c2ccc(N(CCCl)CCCl)cc2)n1
inactive: [3] 102 % of control | [6] 105 % of control | [9] 109 % of control

Cc1ccc([N+](=O)[O-])cc1NC(=O)Nc1cc(Cl)ccc1O
inactive: [16] 93 % of control | [17] 96 % of control | [20] 95 % of control
